Assay [1] concerns the target ROCK2 (Homo sapiens (Human), UniProt O75116). Briefly: ROCK2 kinase inhibition assay (peptide phosphorylation, LABCHIP 3000). It is filed as biochemical. To be noted: 7 μM ATP, 2.5 nM ROCK2, 3 hours at 25° C.
Procedure: The peptide is phosphorylated by the protein kinase ROCK1 or ROCK2. The ROCK1 or ROCK2 enzyme, substrate, and cofactors (ATP and Mg^2+) are combined in a well of a microtiter plate and incubated for 3 hours at 25° C. in the presence or absence of an inhibitor compound. At the end of the incubation, the reaction is quenched by the addition of an EDTA-containing buffer. The substrate and product are separated and quantified electrophoretically using the microfluidic-based LABCHIP® 3000 Drug Discovery System from Caliper Life Sciences (Hopkinton, Mass.).
The components of the assay mixture are:
10 μM Sodium Orthovanadate
10 LM Beta-Glycerophosphate
5 μM ATP (for ROCK1) or 7 μM ATP (for ROCK2)
3 nM ROCK1 or 2.5 nM ROCK2 enzyme
Substrate and product peptides present in each sample are separated electrophoretically using the LABCHIP® 3000 capillary electrophoresis instrument. […] Change in the relative fluorescence intensity of the substrate and product peaks is the parameter measured reflecting enzyme activity. Capillary electrophoregramms (RDA acquisition files) are analyzed using HTS Well Analyzer software (Caliper Life Sciences, Hopkinton, Mass.). The kinase activity in each sample is determined as the product to sum ratio (PSR): P/(S+P), where P is the peak height of the product peptide and S is the peak height of the substrate peptide. For each compound, enzyme activity is measured at various concentrations (12 concentrations of compound spaced by 3× dilution intervals). Negative control samples (0%-inhibition in the absence of inhibitor) and positive control samples (100%-inhibition in the presence of 20 mM EDTA) are assembled in replicates of four and are used to calculate %-inhibition values for each compound at each concentration. Percent inhibition (Pinh) is determined using the following equation: Pinh=(PSRO %−PSRinh)/(PSRO %−PSR100%)*100
where PSRinh is the product sum ratio in the presence of inhibitor, PSRO % is the average product sum ratio in the absence of inhibitor, and PSR100% is the average product sum ratio in 100%-inhibition control samples. The IC50 values of inhibitors are determined by fitting the inhibition curves (Pinh versus inhibitor concentration) by the 4-parameter sigmoidal dose-response model using XLfit 4 software (IBDS).
In assay [2] the test system is K562 cell line. In words: Cell viability assay ([…]-GLO), K562. The format is cell-based. To be noted: K562 (does not express ITD-FLT3), 72 hours treatment. How it is done: Cell viability in the presence of varying concentrations of the above listed compounds at different time points was used to assess cytotoxicity and the effect of the compounds on cell proliferation.
Cell viability was measured by the […]-GlO® cell viability assay from Promega (Madison, Wis.). The […]-GlO Luminescent Cell Viability Assay is a homogeneous method to determine the number of viable cells in culture based on quantitation of the ATP present, which signals the presence of metabolically active cells. Following treatment, […]-GlO® is added to treatment wells and incubated at 37° C. Luminescence values were measured at using a Molecular Devices Spectramax microplate reader.
Cells were grown to 70% confluency, trypsinized, counted, and seeded in 96 well flat-bottom plates at a final concentration of 2.5×10^3-5×10^3 cells/well (Day 0). Cells were allowed to incubate in growth media for 24 hours. Treatment with the test agents or standard agents began on Day 1 and continued for 72 hours. At the 72-hour time point, treatment containing media was removed. Viable cell numbers were quantified by the […]-GLO® cell viability assay as described above. Results from these studies were used to calculate an IC50 value (concentration of drug that inhibits cell growth by 50 percent of control) for each compound.
For single agent and combination studies, data from each experiment was collected and expressed as % Cell Growth using the following calculation: % Cell Growth=(ftest/fvehicle)×100
Where ftest is the luminescence of the tested sample, and fvehicle is the luminescence of the vehicle in which the drug is dissolved. Dose response graphs and IC50 values were generated using Prism 6 software (GraphPad) using the following equation: Y=(Top−Bottom)/(1+10^((logIC50-X)−HillSlope))
Where X is the logarithm of the concentration and Y is the response. Y starts at the Bottom and goes to the Top with a sigmoid shape.
The experiments also evaluated the selectivity of the compounds for inhibiting growth of cancer cells carrying a mutation in the Flt3 gene. The MV411 cell line expresses the mutant allele of Flt3 with internal tandem duplications (ITD) of the gene. See Quentmeier et al., “FLT3 Mutations in Acute Myeloid Leukemia Cell Lines,” Leukemia 17(1), 2003, 120-124. […] See Grafone et al., “Monitoring of FLT3 Phosphorylation Status and Its Response to Drugs By Flow Cytometry in AML Blast Cells,” Hematol Oncol. 26(3), 2008, 159-166.

Assay [3] concerns MV411 cell line. In words: Cell viability assay ([…]-GLO), MV411. The format is cell-based. To be noted: for IC50: MV411 (ITD-FLT3+), 72 hours treatment; for FLT3-ITD+ Selectivity (K562/MV411): ratio K562/MV411.
Procedure: Cell viability was measured by the […] -GlO® cell viability assay from Promega (Madison, Wis.). The […] -GlO Luminescent Cell Viability Assay is a homogeneous method to determine the number of viable cells in culture based on quantitation of the ATP present, which signals the presence of metabolically active cells. Following treatment, […] -GlO® is added to treatment wells and incubated at 37° C. Luminescence values were measured at using a Molecular Devices Spectramax microplate reader.

Sequence of ROCK2 (O75116 whole entry, species assumed): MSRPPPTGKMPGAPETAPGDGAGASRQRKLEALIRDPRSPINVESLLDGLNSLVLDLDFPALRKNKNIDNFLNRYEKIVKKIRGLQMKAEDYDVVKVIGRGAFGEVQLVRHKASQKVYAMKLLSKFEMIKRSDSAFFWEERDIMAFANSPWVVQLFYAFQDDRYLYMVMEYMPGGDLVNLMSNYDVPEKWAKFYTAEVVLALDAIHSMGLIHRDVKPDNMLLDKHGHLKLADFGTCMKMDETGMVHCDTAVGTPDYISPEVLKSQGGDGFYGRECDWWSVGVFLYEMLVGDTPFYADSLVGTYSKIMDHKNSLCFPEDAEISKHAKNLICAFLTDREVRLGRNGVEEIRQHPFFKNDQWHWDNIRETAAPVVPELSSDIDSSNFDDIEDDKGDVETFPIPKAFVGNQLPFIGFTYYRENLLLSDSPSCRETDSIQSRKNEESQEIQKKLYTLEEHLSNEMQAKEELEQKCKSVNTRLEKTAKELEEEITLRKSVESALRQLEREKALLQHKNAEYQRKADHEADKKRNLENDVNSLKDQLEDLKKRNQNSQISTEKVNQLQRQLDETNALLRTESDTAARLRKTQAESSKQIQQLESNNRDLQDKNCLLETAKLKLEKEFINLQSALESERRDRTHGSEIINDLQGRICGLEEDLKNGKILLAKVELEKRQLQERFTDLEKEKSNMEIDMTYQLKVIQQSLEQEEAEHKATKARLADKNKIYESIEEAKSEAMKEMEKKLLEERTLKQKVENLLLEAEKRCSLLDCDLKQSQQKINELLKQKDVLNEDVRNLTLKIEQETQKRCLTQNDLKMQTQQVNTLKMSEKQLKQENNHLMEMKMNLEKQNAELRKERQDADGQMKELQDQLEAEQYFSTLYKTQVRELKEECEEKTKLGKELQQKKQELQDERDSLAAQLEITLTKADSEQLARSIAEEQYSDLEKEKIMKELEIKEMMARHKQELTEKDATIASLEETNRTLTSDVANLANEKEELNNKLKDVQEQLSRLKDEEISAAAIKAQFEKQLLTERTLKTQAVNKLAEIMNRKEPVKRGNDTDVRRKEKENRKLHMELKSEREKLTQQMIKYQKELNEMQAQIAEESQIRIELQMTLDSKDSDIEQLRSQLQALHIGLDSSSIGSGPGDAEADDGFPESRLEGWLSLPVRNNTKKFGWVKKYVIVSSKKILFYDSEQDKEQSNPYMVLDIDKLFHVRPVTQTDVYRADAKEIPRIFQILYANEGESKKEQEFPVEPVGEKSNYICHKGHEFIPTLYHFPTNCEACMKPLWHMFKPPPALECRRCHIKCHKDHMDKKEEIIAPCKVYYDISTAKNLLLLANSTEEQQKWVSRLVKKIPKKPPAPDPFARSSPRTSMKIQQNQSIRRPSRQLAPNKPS

`Cc1cc(-c2cn[nH]c2)ccc1C(=O)N[C@H](CO)c1cccc(C(=O)NC2CCCC2)c1` [Compound 96]: the IC50 is 53.1 nM in assay [1]; 101000 nM in assay [2] (Homo sapiens); 710 nM in assay [3] (Homo sapiens, MV4-11). Also, the “FLT3-ITD+ Selectivity (K562/MV411)” value in assay [3] was found to be 142.
On to `O=C(NC1CCC(F)(F)CC1)c1cccc([C@@H](CO)NC(=O)c2ccc(-c3ccncc3)cc2)c1` [Compound 53], for which the 50% inhibitory concentration (IC50) was 0.66 nM in assay [1]; over 100000 nM in assay [2] (Homo sapiens); 220 nM in assay [3] (Homo sapiens, MV4-11). In addition, the “FLT3-ITD+ Selectivity (K562/MV411)” value in assay [3] is on record as over 459.
Regarding `CCOc1cc(-c2cn[nH]c2)ccc1C(=O)N[C@H](CO)c1cccc(C(=O)NC2CCCC2)c1` [Compound 101], the IC50 in assay [1] came to 0.25 nM; in assay [2] (Homo sapiens), 15000 nM; in assay [3] (Homo sapiens, MV4-11) it was 80 nM. Moreover, the “FLT3-ITD+ Selectivity (K562/MV411)” value in assay [3] is 194.
As for `COC1(CNC(=O)c2cccc([C@@H](CO)NC(=O)c3ccc(-c4ccncc4)cc3)c2)CCCC1` [Compound 87], the IC50 in assay [1] came to 0.8 nM; in assay [2] (Homo sapiens), 23000 nM; in assay [3] (Homo sapiens, MV4-11) it was 270 nM. Further, the “FLT3-ITD+ Selectivity (K562/MV411)” value in assay [3] is recorded as 85.
The corresponding values for `C[C@@H](NC(=O)c1ccc(-c2ccncc2)cc1)c1cccc(C(=O)NCC2CCN(C)CC2)c1` [Compound 49] are 0.3 nM, over 100000 nM, 20 nM and over 5050.
As to `CC(C)N1CCC(NC(=O)c2cccc([C@@H](CO)NC(=O)c3ccc(-c4ccncc4)cc3)c2)CC1` [Compound 55], the IC50 in assay [1] was 0.47 nM; in assay [2] (Homo sapiens) it was over 100000 nM; in assay [3] (Homo sapiens, MV4-11), 120 nM. Also, in assay [3], the “FLT3-ITD+ Selectivity (K562/MV411)” value is over 842.
For `CN(C)Cc1ccc(CNC(=O)c2cccc([C@@H](CO)NC(=O)c3ccc(-c4ccncc4)cn3)c2)cc1` [Compound 47], the IC50 in assay [1] amounted to 0.54 nM; in assay [2] (Homo sapiens) it was 36000 nM; in assay [3] (Homo sapiens, MV4-11), 100 nM. The “FLT3-ITD+ Selectivity (K562/MV411)” value in assay [3] is listed as 360.
The like results for `CC(C)N1CCC(CNC(=O)c2cccc([C@@H](C)NC(=O)c3ccc(-c4ccncc4)cc3)c2)CC1` [Compound 60] were, in that order, 0.53 nM, over 100000 nM, 40 nM and over 2525.
The corresponding values for `C[C@@H](NC(=O)c1ccc(-c2cn[nH]c2)cc1)c1cccc(C(=O)NC2CCCC2)c1` [Compound 97] are 0.74 nM, 17000 nM, 110 nM and 154.
The corresponding values for `O=C(NCC1CCOCC1)c1cccc([C@@H](CO)NC(=O)c2ccc(-c3ccncc3)cc2)c1` [Compound 22] are 0.57 nM, over 100000 nM, 3800 nM and over 27.
As to `C[C@@H](NC(=O)c1ccc(-c2ccncc2)cc1)c1cccc(C(=O)Nc2ccc3c(c2)CN(C)CC3)c1` [Compound 6], the IC50 in assay [1] came to 1.2 nM; in assay [2] (Homo sapiens), 8000 nM; in assay [3] (Homo sapiens, MV4-11) it was 200 nM. Also, the “FLT3-ITD+ Selectivity (K562/MV411)” value in assay [3] turned out to be 40.
The like results for `CN1CCc2ccc(NC(=O)c3cccc([C@@H](CO)NC(=O)c4ccc(-c5ccncc5)cc4)c3)cc2C1=O` [Compound 27] were, in that order, 0.39 nM, 25000 nM, 4400 nM and 6.
As to `COCC1(NC(=O)c2cccc([C@@H](CO)NC(=O)c3ccc(-c4ccncc4)cc3)c2)CCCC1` [Compound 67], the IC50 is 9.1 nM in assay [1]; 41000 nM in assay [2] (Homo sapiens); 2670 nM in assay [3] (Homo sapiens, MV4-11). The “FLT3-ITD+ Selectivity (K562/MV411)” value in assay [3] turned out to be 15.
The like results for `O=C(NCc1cccc(F)c1)c1cccc([C@@H](CO)NC(=O)c2ccc(-c3ccncc3)cc2)c1` [Compound 75] were, in that order, 0.5 nM, 33000 nM, 160 nM and 207.
As for `CN1CCC(NC(=O)c2cccc([C@@H](CO)NC(=O)c3ccc(-c4ccncc4)cc3)c2)CC1` [Compound 50], the IC50 in assay [1] was 0.33 nM; in assay [2] (Homo sapiens) it was over 100000 nM; in assay [3] (Homo sapiens, MV4-11), 100 nM. Besides, in assay [3], the “FLT3-ITD+ Selectivity (K562/MV411)” value was over 1010.
The like results for `O=C(NC1CC1)c1cccc([C@@H](CO)NC(=O)c2ccc(-c3ccncc3)cc2)c1` [Compound 12] were, in that order, 1.8 nM, over 100000 nM, 540 nM and over 187.
As for `CN1CCC(C)(CNC(=O)c2cccc([C@@H](CO)NC(=O)c3ccc(-c4ccncc4)cc3)c2)CC1` [Compound 57], the IC50 is 0.63 nM in assay [1]; over 100000 nM in assay [2] (Homo sapiens); 90 nM in assay [3] (Homo sapiens, MV4-11). Also, the “FLT3-ITD+ Selectivity (K562/MV411)” value in assay [3] is recorded as over 1122.
The like results for `COc1ccc(CNC(=O)c2cccc([C@@H](CO)NC(=O)c3ccc(-c4ccncc4)cc3)c2)cc1` [Compound 85] were, in that order, 0.6 nM, 33000 nM, 90 nM and 368.
The like results for `CN(C)C1CCC(NC(=O)c2cccc([C@@H](CO)NC(=O)c3ccc(-c4ccncc4)cc3)c2)CC1` (some centres unmarked) [Compound 52] were, in that order, 0.61 nM, over 100000 nM, 120 nM and over 842.
Turning to `O=C(NC1CCN(CC(F)(F)F)CC1)c1cccc([C@@H](CO)NC(=O)c2ccc(-c3ccncc3)cc2)c1` [Compound 92], the IC50 is 0.68 nM in assay [1], over 100000 nM in assay [2] and 30 nM in assay [3]. The “FLT3-ITD+ Selectivity (K562/MV411)” value in assay [3] is reported as over 3061.
Turning to `CN(C)C1(CNC(=O)c2cccc([C@@H](CO)NC(=O)c3ccc(-c4ccncc4)cc3)c2)CCCC1` [Compound 72], the 50% inhibitory concentration (IC50) in assay [1] came out at 0.5 nM; in assay [2] (Homo sapiens) it was 89000 nM; in assay [3] (Homo sapiens, MV4-11), 100 nM. In addition, the “FLT3-ITD+ Selectivity (K562/MV411)” value in assay [3] was 891.
Turning to `CN(C)CCc1ccc(NC(=O)c2cccc([C@@H](CO)NC(=O)c3ccc(-c4ccncc4)cc3)c2)cc1` [Compound 20], the IC50 is 1.2 nM in assay [1]; 16000 nM in assay [2] (Homo sapiens); 10 nM in assay [3] (Homo sapiens, MV4-11). Besides, in assay [3], the “FLT3-ITD+ Selectivity (K562/MV411)” value was determined as 1585.
The like results for `O=C(NCC1CCN(C2CC2)CC1)c1cccc([C@@H](CO)NC(=O)c2ccc(-c3ccncc3)cc2)c1` [Compound 58] were, in that order, 0.44 nM, over 100000 nM, 40 nM and over 2525.
The like results for `CC(C)NC(=O)c1cccc([C@@H](CO)NC(=O)c2ccc(-c3ccncc3)cc2)c1` [Compound 62] were, in that order, 2.85 nM, 65000 nM, 1030 nM and 63.
`O=C(NCC1CCC1)c1cccc([C@@H](CO)NC(=O)c2ccc(-c3ccncc3)cc2)c1` [Compound 66]: the IC50 came out at 0.6 nM in assay [1]; 36000 nM in assay [2] (Homo sapiens); 130 nM in assay [3] (Homo sapiens, MV4-11). For the same compound, in assay [3], the “FLT3-ITD+ Selectivity (K562/MV411)” value was 279.
For `COc1ccc(C(=O)N[C@H](C)c2cccc(C(=O)Nc3nc4c(s3)CN(C)CC4)c2)cc1C` [Compound 17], the IC50 in assay [1] is 22.5 nM; in assay [2] (Homo sapiens) it was over 100000 nM; in assay [3] (Homo sapiens, MV4-11) it was 13500 nM. The “FLT3-ITD+ Selectivity (K562/MV411)” value in assay [3] is reported as over 7.
With `Cc1cc(-c2ccncc2)ccc1C(=O)N[C@H](CO)c1cccc(C(=O)NC2CCCC2)c1` [Compound 88], the half-inhibitory concentration (IC50) in assay [1] was 7.5 nM; in assay [2] (Homo sapiens) it was over 100000 nM; in assay [3] (Homo sapiens, MV4-11), 8500 nM. Further, the “FLT3-ITD+ Selectivity (K562/MV411)” value in assay [3] is given as over 12.
The like results for `O=C(NC1CCCC1)c1cccc([C@@H](CO)NC(=O)c2ccc(-c3cn[nH]c3)cc2F)c1` [Compound 95] were, in that order, 2.34 nM, 76000 nM, 890 nM and 86.
Regarding `CC(NC(=O)c1ccc(-c2ccncc2)cc1)c1cccc(OCC(=O)Nc2ccc3c(c2)CN(C)CC3)c1` (centres unmarked) [Compound 16], the IC50 in assay [1] worked out at 3.6 nM; in assay [2] (Homo sapiens) it was 30000 nM; in assay [3] (Homo sapiens, MV4-11) it was 1500 nM. In assay [3], the “FLT3-ITD+ Selectivity (K562/MV411)” value was 20.

What is called IC50 is the concentration at which inhibition is half-maximal.

The values above are taken from US10738007B2, “Amide compounds as kinase inhibitors, compositions and methods of treatment” (TRANSLATIONAL DRUG DEVELOPMENT, LLC, priority 2016, dated 2020).
